By IC50 is commonly meant the concentration that gives 50% inhibition.

Here are results for 4 compounds from patent publication US20050026827A1, “Octapeptide bombesin analogs” (Societe de Conseils de Recherches et d'Applications …, priority 1987, published 2005).

Assay [1] deals with rat anterior pituitary cells. It counts as cell-based. As to conditions: vs 1 nM GRF(1-29)NH2; read-out: IC50 (antagonist of GRF-stimulated GH secretion). The protocol:
(§1) Phase 7—Inhibition of Growth Hormone Release
(§2) Anterior pituitaries from adult male rats, weighing 200-250 g and housed under controlled conditions (lights on from 0500-1900 h), were dispersed using aseptic technique by a previously described trypsin/DNase method (Heiman et al., Endocrinology, 1985, 116, 410) derived from other methods (Hoefer et al., Mol. Cell. Endocrinol., 1984, 35, 229).
(§3) The dispersed cells were diluted with sterile-filtered Dulbecco's modified Eagle medium (MEM) (Gibco Laboratories, Grand Island, N.Y. (GIBCO)), which was supplemented with fetal calf serum (2.5%; GIBCO), horse serum (3%; GIBCO), fresh rat serum (10% stored on ice for no longer than 1 h) from the pituitary donors, MEM nonessential amino acids (1%; GIBCO), gentamycin (10/mg/mL; Sigma) and nystatin (10,000 U/mL; GIBCO). The cells were counted with a hemacytometer (approximately 2,000,000 cells per pituitary) and randomly plated at a density of 200,000 per well (Co-star cluster 24; Rochester Scientific Co., Rochester, N.Y.). […]
(§4) Growth hormone (GH) in plasma and media was measured by a standard double antibody radioimmunoassay using components supplied by the NIDDK and the National Hormone and Pituitary Program, University of Maryland School of Medicine. […] Potencies and 95% confidence intervals were calculateds by 4-point assay (Pugsley, Endocrinology, 1946, 39, 161). […]

In assay [2] the test system is rat anterior pituitary cells. As to the kind of experiment: Growth hormone release from primary culture of rat anterior pituitary cells (agonist potency). In kind it is cell-based. Here is the method:
as §1, §2, §3, §4

For assay [3], the target named is bombesin receptor of rat pancreatic acini cells (rat) (UniProt P52500). The assay can be described thus: displacement of 125I-labeled bombesin from rat pancreatic acini cells. A general note: Loss of bound radioactivity is the signal in a displacement assay; it reports binding, not function.
Assay [4] has the same target.
In assay [5] the target is adenylate cyclase activity in rat anterior pituitary homogenates. As to conditions: Robberecht et al.; cited from earlier work.

“Also recorded” adds a separate entry of the source.

For the compound `CC[C@H](C)[C@H](NC(=O)[C@H](C)NC(=O)[C@H](CC(=O)O)NC(=O)[C@H](C)NC(=O)[C@@H](N)Cc1ccc(O)cc1)C(=O)N[C@@H](Cc1ccccc1)C(=O)N[C@H](C(=O)N[C@@H](CC(N)=O)C(=O)N[C@@H](CO)CN[C@@H](Cc1ccc(O)cc1)C(=O)N[C@@H](CCCNC(=N)N)C(=O)N[C@@H](CCCCN)C(=O)N[C@H](C(=O)N[C@@H](CC(C)C)C(=O)NCC(=O)N[C@@H](CCC(N)=O)C(=O)N[C@@H](CC(C)C)C(=O)N[C@@H](CO)C(=O)N[C@@H](C)C(=O)N[C@@H](CCCNC(=N)N)C(=O)N[C@@H](CCCCN)C(=O)N[C@@H](CC(C)C)C(=O)N[C@@H](CC(C)C)C(=O)N[C@@H](CCC(N)=O)C(=O)N[C@@H](CC(=O)O)C(=O)N[C@H](C(=O)N[C@@H](CCSC)C(=O)N[C@@H](CO)C(=O)N[C@@H](CCCNC(=N)N)C(N)=O)[C@@H](C)CC)C(C)C)[C@@H](C)O` [VIII, [Ser^9ψ[CH2NH]Tyr^10]-GRF(1-29)NH2], the IC50 in assay [1] was roughly 10 µM. For the same compound, in assay [2] (doses as high as 0.1 mM), the “agonist activity in the potency assay (in words)” value is “inactive; also recorded: all trace of agonist activity was lost”.

As for GRF(1-29)NH2 [reference compound], in assay [2] (GH release, relative to GRF(1-29)NH2 = 100, 4-point assay), the “Potency (%)” value came out at 100%.

With “The analogues (D-Phe-Gln-Trp-Ala-Val-N-methyl-D-Ala-His-Leu-methylester and D-F5-Phe-Gln-Trp-Ala-Val-D-Ala-His-Leu-methylester)”, in assay [3], the half-maximal effective dose lay within 5 to 10 nM. This compound came in with an inhibition of amylase release produced by bombesin, half-maximal effective dose in assay [4] of 5 to 10 nM.

For the compound [N-Ac-Tyr^1, D-Arg^2]GRF(1-29)NH2, in assay [5], the IC50 was roughly 1 µM.
